Source: PubChem BioAssay AID743413 (Broad Institute, 2014)
Active and inactive are the calls of the source.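 Rule for the calls: active = compounds lowering cell ATP signal with a fitted AC50 at or below twice their top tested dose; inconclusive = flat curve between 30% and 70% loss, or poor fit; inactive = the rest.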

system: not listed separately; assay: toxicity toward A549 lung cells – cell-based, plate reader, dry powder, set 11, cytotoxicity control, dose response (AID 743413); settings: A549 viability, CellTiter-Glo ATP luminescence, 72 h; at 12 µM (top of the series)

Structure (SMILES)	activity change, negative = cytotoxicity
COc1cc(CNCCCN2CCOCC2)ccc1OCC(=O)Nc1cccc(C(F)(F)F)c1	7.4% (inactive)
COCCN(Cc1ccco1)C(=O)CSc1c2c(nc3cc(Cl)ccc13)CCCC2	-3.68% (inactive)

same assay, conditions: A549 viability, CellTiter-Glo ATP luminescence, 72 h; at 26 µM (top of the series)

Structure (SMILES)	activity change, negative = cytotoxicity
COc1cc(C(=O)NCCCN(C)C)ccc1OCC(=O)Nc1cccc(C(F)(F)F)c1	-6.69% (inactive)
O=C(COc1ccc(C(=O)N2CCC2)cc1)Nc1cccc(C(F)(F)F)c1	2.9% (inactive)
Cn1cc(SCC(=O)NCc2ccco2)c2ccccc21	-0.441% (inactive)
O=C(CSc1cccc2cccnc12)NCc1ccco1	-1.12% (inactive)
Cn1c(=O)cc(SCC(=O)NCc2ccco2)c2ccccc21	5.32% (inactive)
CN(C(=O)COc1ccc(Cl)cc1C(N)=O)c1ccccc1	2.07% (inactive)
CCOc1ccc(NC(=O)COc2ccc(C(=O)N3CCC(C(N)=O)CC3)cc2OC)cc1	-3.38% (inactive)
O=C(CSc1c2c(nc3ccc(Cl)cc13)CCCC2)N1CCNC1=O	-13.8% (inactive)
O=C(COc1ccc(C(=O)N2CCN(C(=O)C3CC3)CC2)cc1)Nc1cccc(C(F)(F)F)c1	-1.09% (inactive)
O=C(COc1ccc(C(=O)NCC2CCCO2)cc1)Nc1cccc(C(F)(F)F)c1 (stereo unspecified)	1.08% (inactive)
O=C(CSc1ccc2ccccc2n1)NCc1ccco1	-6.75% (inactive)
CN(CCNC(=O)CSc1c2c(nc3ccc(Cl)cc13)CCCC2)Cc1ccccc1	-8.03% (inactive)
COC(=O)CCCN(C)C(=O)c1ccc(OCC(=O)Nc2cccc(OC)c2)cc1	-0.651% (inactive)
CCOC(=O)C1CCN(C(=O)c2ccc(OCC(=O)N3CCOCC3)c(OC)c2)CC1	-3.29% (inactive)
CN(C(=O)COc1ccccc1C(N)=O)c1ccccc1	-1.13% (inactive)
NC(=O)C1CCN(C(=O)c2ccc(OCC(=O)Nc3cccc(C(F)(F)F)c3)cc2)CC1	8.43% (inactive)
CC1(C)CC(NC(=O)c2ccc(OCC(=O)Nc3cccc(C(F)(F)F)c3)cc2)CC(C)(C)N1	-14.3% (inactive)
O=C(COc1ccccc1C(=O)NCCOc1ccc(Cl)cc1)Nc1cccc(Cl)c1	-15.3% (inactive)

Structure (SMILES)	activity change, negative = cytotoxicity
O=C(COc1ccccc1C(=O)NCc1ccccc1)Nc1ccccc1	-5.99% (inactive)
CCOC(=O)N1CCC(NC(=O)CSc2c3c(nc4ccc(Cl)cc24)CCCC3)CC1	-13.1% (inactive)
COc1ccc(OCCNC(=O)c2ccccc2OCC(=O)Nc2ccc(NC(C)=O)cc2)cc1	-14.7% (inactive)
O=C(O)CSc1c2c(nc3cc(C(=O)NCc4cccs4)ccc13)CCCC2	-2.24% (inactive)
CC(Sc1c2c(nc3ccc(Cl)cc13)CCCC2)C(=O)NCc1ccco1 (stereo unspecified)	-8.08% (inactive)
CN(C)c1ccc(NC(=O)COc2ccccc2C(=O)N2CCOCC2)cc1	-1.46% (inactive)
CCCCOc1ccc(NC(=O)COc2ccccc2C(=O)NCCOc2ccccc2)cc1	-9.94% (inactive)
CCOC(=O)C1CCN(C(=O)c2ccc(OCC(=O)Nc3ccc(OCC)cc3)c(OC)c2)CC1	5.86% (inactive)
CN(C(=O)COc1ccccc1C(=O)Nc1ccccc1)c1ccccc1	-12% (inactive)
CN(CCOc1ccccc1)C(=O)c1ccc(OCC(=O)Nc2cccc(C(F)(F)F)c2)cc1	0.912% (inactive)
O=C(CSc1c2c(nc3ccc(Cl)cc13)CCCC2)NCC1(c2ccccc2)CCCC1	-1.8% (inactive)
COc1ccc(N(Cc2cccs2)C(=O)COc2ccccc2C(=O)Nc2ccccc2)cc1	-14% (inactive)
O=C(COc1ccc(C(=O)NC2CCCCC2)cc1)Nc1cccc(C(F)(F)F)c1	-0.017% (inactive)
Cc1ccc(NC(=O)COc2ccccc2C(=O)NCCN(C)C)cc1	-4.77% (inactive)
CCN(CC)C(=O)CSc1c2c(nc3ccc(Cl)cc13)CCCC2	-10.9% (inactive)
Cc1ccc2nc(Cl)cc(SCC(=O)NCc3ccco3)c2c1	-7.2% (inactive)
O=C(CSc1c2c(nc3ccc(Cl)cc13)CCCC2)NC1CCCC1	-25.2% (inactive)

system: A549 viability, CellTiter-Glo ATP luminescence, 72 h; assay: as above; settings: not given

Structure (SMILES)	AC50
O=C(CSc1c2c(nc3ccc(Cl)cc13)CCCC2)NC1CC1	> 52 µM (inactive)
Cc1cccc(CCNC(=O)CSc2c3c(nc4ccc(Cl)cc24)CCCC3)c1	> 52 µM (inactive)
O=C(CSc1c2c(nc3ccc(Cl)cc13)CCCC2)NCCCc1ccccc1	> 52 µM (inactive)
O=C(CSc1c2c(nc3ccc(Cl)cc13)CCCC2)NCCN1CCN(Cc2ccccc2)CC1	26.7 µM
COc1ccc(CNC(=O)CSc2c3c(nc4ccc(Cl)cc24)CCCC3)cc1	> 52 µM (inactive)
O=C(CSc1c2c(nc3ccc(Cl)cc13)CCCC2)NCc1ccc2c(c1)OCO2	> 52 µM (inactive)
O=C(CSc1c2c(nc3ccc(Cl)cc13)CCCC2)N1CCC(N2CCCCC2)CC1	26.6 µM
O=C(CSc1c2c(nc3cc(Cl)ccc13)CCCC2)N(Cc1ccco1)C1CCCC1	> 52 µM (inactive)
Cc1ccc(CNC(=O)CSc2c3c(nc4ccc(Cl)cc24)CCCC3)cc1	> 52 µM (inactive)
CCN1CCCC1CNC(=O)CSc1c2c(nc3ccc(Cl)cc13)CCCC2 (stereo unspecified)	16.2 µM
COc1ccc(NC(=O)CSc2c3c(nc4ccc(Cl)cc24)CCCC3)cc1	> 52 µM (inactive)
O=C(CSc1c2c(nc3ccc(Cl)cc13)CCCC2)NCc1cccs1	> 52 µM (inactive)
O=C(CSc1c2c(nc3ccc(Cl)cc13)CCCC2)Nc1ccccc1	> 52 µM (inactive)
O=C(CSc1c2c(nc3ccc(Cl)cc13)CCCC2)N1CCCCC1	> 52 µM (inactive)
